Test results reported in patent publication EP0791603A2, “Pure somatostatin antagonist and methods of use thereof” (American Cyanamid Company, priority 1996, dated 1997).
Positions of bridges follow the written chain, without caps; N, C: chain ends. Non-standard residues stand in square brackets, D forms with d. Residues, ends and D or L forms follow the SMILES beside them. NMePhe(4-NO2) = CN[C@@H](Cc1ccc([N+](=O)[O-])cc1)C(=O)O; Phe(4-NO2) = N[C@@H](Cc1ccc([N+](=O)[O-])cc1)C(=O)O; 2Nal = N[C@@H](Cc1ccc2ccccc2c1)C(=O)O; d2Nal = N[C@H](Cc1ccc2ccccc2c1)C(=O)O; Abu = CC[C@H](N)C(=O)O

Target: T1, rat somatostatin receptor subtype 2 (SSTR2) (Rattus norvegicus, UniProt P30680)
T1 construct: expressed in transfected cells; host or cells: Saccharomyces cerevisiae LY364
T1 sequence (P30680 whole entry): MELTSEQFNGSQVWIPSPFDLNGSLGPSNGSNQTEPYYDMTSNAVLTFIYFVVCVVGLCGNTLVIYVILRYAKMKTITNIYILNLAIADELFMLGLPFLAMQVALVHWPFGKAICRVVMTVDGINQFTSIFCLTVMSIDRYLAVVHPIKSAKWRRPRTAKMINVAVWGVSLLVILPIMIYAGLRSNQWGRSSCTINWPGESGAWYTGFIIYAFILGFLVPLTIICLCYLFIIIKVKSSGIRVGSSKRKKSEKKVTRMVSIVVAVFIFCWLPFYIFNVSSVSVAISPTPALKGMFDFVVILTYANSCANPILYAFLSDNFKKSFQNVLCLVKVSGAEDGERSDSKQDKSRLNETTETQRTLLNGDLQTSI
Test: Yeast assay, somatostatin agonist activity (growth zone of modified yeast cells on histidine-free agar)
Assay type: cell-based
Settings: rating on a scale of 1-5 from zone of growing cells; S. Cerevisiae LY364
Procedure: In this evaluation, yeast cells which have been specifically modified to functionally express rat somatostatin receptor subtype 2 (SSTR2) on their cell surfaces are used. S. Cerevisiae LY364 cells are plated in a standard synthetic agar medium which lacks histidine. In the absence of a somatostatin receptor agonist, the auxotrophic (his3) cells are unable to grow. In the presence of somatostatin, or a somatostatin agonist, the expression of an enzyme (His3p: imidazole-glycerol phosphate dehydratase) which is essential for histidine biosynthesis is induced. The cells become competent to produce histidine, resulting in a zone of growing cells around the applied test compound. The zone is measured and the test compound is given an agonist rating on a scale of 1-5 wherein 1 is minimum agonist activity and 5 is maximum agonist activity.
SCD-ura-trp: • 1) To 500 mL water add: • 1.7 g YNB without amino acids and (NH4)2SO4 • 5.0 g (NH4)2SO4 • 0.7 g CSM-ura-trp • 2) To additional 500 mL water add: 20 g Dextrose • 3) Autoclave separately. Mix.
SCL-ura-trp: • 1) To 500 mL water add: • 1.7 g YNB without amino acids and (NH4)2SO4 • 5.0 g (NH4)2SO4 • 0.7 g CSM-ura-trp • 2) To additional 500 mL water add: 30 mL Lactic Acid • 3) Autoclave separately. Mix.
SCG-ura-trp: • 1) To 500 mL water add: • 1.7 g YNB without amino acids and (NH4)2SO4 • 5.0 g (NH4)2SO4 • 0.7 g CSM-ura-trp • 2) To additional 500 mL water add: 30 g D-Galactose • 3) Autoclave separately. Mix.
SCG-ura-trp-his agar medium, pH 6.8: • 1) To 500 mL water add: • 1.7 g YNB without amino acids and (NH4)2SO4 • 5.0 g (NH4)2SO4 • 0.7 g CSM-ura-trp-his • Stirring Bar • 2) Adjust pH to 6.8-6.9 by dropwise addition of conc. NH4OH • 3) To additional 500 mL water add: 30 g D-Galactose, 20 g Agar • 4) Autoclave separately. • 5) Stir to mix thoroughly. • 6) Equilibrate temperature to 55°C. YNB without amino acids and (NH4)2SO4, CSM-ura-trp, and CSM-ura-trp-his are manufactured by Bio101. Ammonium sulfate ((NH4)2SO4), Dextrose (D-glucose), D-Galactose, and Lactic Acid are manufactured by Sigma.
• 1) Inoculate 2 mL SCD-ura-trp liquid medium in Falcon 2051 tube with a single colony taken from a plate containing LY364 (MATa ura3-52 leu2 his3 trp1 lys2 ade2 far1:: LYS2 fus1:: FUS1-HIS3 gpal::hisG sst2::ADE2 bearing the SSTR2 expression plasmid, pJH2, and the G protein expression plasmid, pLP82)cells. • 2) Incubate overnight in a roller drum at 30°C.
Day 2. • 1) Harvest the cells by centrifugation (3 krpm, 5 min, room temp). • 2) Re-suspend with 5 mL of sterile water. • 3) Harvest again by centrifugation. • 4) Re-suspend in 5 mL SCL-ura-trp liquid medium. • 5) Incubate for 6 hours in a roller drum at 30°C. • 6) Harvest the cells again by centrifugation. • 7) Re-suspend in 5 mL SCG-ura-trp liquid medium. • 8) Incubate overnight in a roller drum at 30°C.
Day 3. • 1) Autoclave SCG-ura-trp-his pH 6.8 agar medium. • 2) Cool to 55°C in water bath. • 3) Add 1 mL of LY364 culture to 1 liter of agar medium. • 4) Stir vigorously for 1 min. • 5) Pour 150 mL each into five 500 cm^2 plates. • 6) Allow to cool on level surface. • 7) Apply test compound.
On day 3, add 5µL 1 mg/mL S-14 to each plate. Day 5. Begin checking plates for growth around applied compounds. Day 7. Growth in response to somatostatin should be readily observable. Rate extent of growth or inhibition of growth according to rating scale described hereinabove.

| Yeast Assay Agonist | Compound |
| --- | --- |
| - | CC(=O)N[C@@H](Cc1ccc([N+](=O)[O-])cc1)C(=O)N[C@@H]1CSSC[C@@H](C(=O)N[C@H](Cc2ccc(O)cc2)C(N)=O)NC(=O)[C@H]([C@@H](C)O)NC(=O)[C@H](CCCCN)NC(=O)[C@@H](Cc2c[nH]c3ccccc23)NC(=O)[C@H](Cc2ccc(O)cc2)NC1=O |
| - | CC(C)[C@@H]1NC(=O)[C@H](CCCCN)NC(=O)[C@@H](Cc2c[nH]c3ccccc23)NC(=O)[C@H](Cc2ccc(O)cc2)NC(=O)[C@H](NC(=O)[C@H](N)Cc2ccc3ccccc3c2)CSSC[C@@H](C(=O)N[C@@H](Cc2ccc(O)cc2)C(N)=O)NC1=O (H-[d2Nal][dC]Y[dW]KVCY-NH2; disulfide 2-7) |
| - | CC(C)[C@@H]1NC(=O)[C@H](CCCCN)NC(=O)[C@@H](Cc2c[nH]c3ccccc23)NC(=O)[C@H](Cc2ccc(O)cc2)NC(=O)[C@H](NC(=O)[C@@H](N)Cc2ccc([N+](=O)[O-])cc2)CSSC[C@@H](C(=O)N[C@@H](Cc2ccc(O)cc2)C(N)=O)NC1=O (H-[Phe(4-NO2)][dC]Y[dW]KVCY-NH2; disulfide 2-7 (inferred)) |
| - | CN[C@@H](Cc1ccc([N+](=O)[O-])cc1)C(=O)N[C@@H]1CSSC[C@@H](C(=O)N[C@@H](Cc2ccc(O)cc2)C(N)=O)NC(=O)[C@H](C(C)C)NC(=O)[C@H](CCCCN)NC(=O)[C@@H](Cc2c[nH]c3ccccc23)NC(=O)[C@H](Cc2ccc(O)cc2)NC1=O (H-[NMePhe(4-NO2)][dC]Y[dW]KVCY-NH2; disulfide 2-7 (inferred)) |
| - | CC(=O)N[C@@H](Cc1ccc2ccccc2c1)C(=O)N[C@@H]1CSSC[C@@H](C(=O)N[C@@H](Cc2ccc(O)cc2)C(N)=O)NC(=O)[C@H]([C@@H](C)O)NC(=O)[C@H](CCCCN)NC(=O)[C@@H](Cc2c[nH]c3ccccc23)NC(=O)[C@H](Cc2ccc(O)cc2)NC1=O (Ac-[2Nal][dC]Y[dW]KTCY-NH2; disulfide 2-7 (inferred)) |
| - | CC[C@@H]1NC(=O)[C@H](CCCCN)NC(=O)[C@@H](Cc2c[nH]c3ccccc23)NC(=O)[C@H](Cc2ccc(O)cc2)NC(=O)[C@H](NC(=O)[C@@H](N)Cc2ccc([N+](=O)[O-])cc2)CSSC[C@@H](C(=O)N[C@@H](Cc2ccc(O)cc2)C(N)=O)NC1=O (H-[Phe(4-NO2)][dC]Y[dW]K[Abu]CY-NH2; disulfide 2-7 (inferred)) |
| - | CC(C)[C@@H]1NC(=O)[C@H](CCCCN)NC(=O)[C@@H](Cc2c[nH]c3ccccc23)NC(=O)[C@H](Cc2ccc(O)cc2)NC(=O)[C@H](NC(=O)[C@@H](N)Cc2ccc([N+](=O)[O-])cc2)CSSC[C@@H](C(=O)N[C@@H](Cc2ccc3ccccc3c2)C(N)=O)NC1=O (H-[Phe(4-NO2)][dC]Y[dW]KVC[2Nal]-NH2; disulfide 2-7 (inferred)) |
| - | CC(C)[C@@H]1NC(=O)[C@H](CCCCN)NC(=O)[C@@H](Cc2c[nH]c3ccccc23)NC(=O)[C@H](Cc2ccc(O)cc2)NC(=O)[C@H](NC(=O)[C@@H](N)Cc2ccc3ccccc3c2)CSSC[C@@H](C(=O)N[C@@H](Cc2ccc(O)cc2)C(N)=O)NC1=O (H-[2Nal][dC]Y[dW]KVCY-NH2; disulfide 2-7; N-terminus assumed) |

| Compound | Yeast Assay Agonist |
| --- | --- |
| C[C@@H](O)[C@@H]1NC(=O)[C@H](CCCCN)NC(=O)[C@@H](Cc2c[nH]c3ccccc23)NC(=O)[C@H](Cc2ccc(O)cc2)NC(=O)[C@H](NC(=O)[C@@H](N)Cc2ccc([N+](=O)[O-])cc2)CSSC[C@@H](C(=O)N[C@H](Cc2ccc(O)cc2)C(N)=O)NC1=O | - |
| C[C@@H](O)[C@@H]1NC(=O)[C@H](CCCCN)NC(=O)[C@@H](Cc2c[nH]c3ccccc23)NC(=O)[C@H](Cc2ccc(O)cc2)NC(=O)[C@H](NC(=O)[C@@H](N)Cc2ccc([N+](=O)[O-])cc2)CSSC[C@@H](C(=O)N[C@@H](Cc2ccc(O)cc2)C(N)=O)NC1=O | - |
